pEC50: −log10 of the molar value.
Legend:
[1] = tested on: Dengue 3 virus MY05-34640-WT-C6/36; experiment: High-content imaging cell-based flavivirus immunodetection (HCl-CFI) assay, Dengue 3; conditions: Dengue virus, A549, 48 h, read-out: Dengue 3 virus MY05-34640-WT-C6/36 in A549 using HCl [Inhibitor/IC50] Qualified AC50
[2] = tested on: Dengue 4 virus MY01-22713; experiment: High-content imaging cell-based flavivirus immunodetection (HCl-CFI) assay, Dengue 4; conditions: Dengue virus, A549, 48 h, read-out: Dengue 4 virus MY01-22713 in A549 using HCl [Inhibitor/IC50] Qualified AC50, A549 cells, 48 h, viral E protein expression
[3] = tested on: Dengue 2 virus MY97-10340; experiment: High-content imaging cell-based flavivirus immunodetection (HCl-CFI) assay, Dengue 2; conditions: Dengue virus, A549, 48 h, read-out: Dengue 2 virus MY97-10340 in A549 using HCl [Inhibitor/IC50] Qualified AC50, A549 cells, MOI 0.3, 48 h, viral E protein expression
Procedure: High-Content Imaging Cell-Based Flavivirus Immunodetection (HCl-CFI) Assay
A549 cells (7×10^3 cells per well) in a 384-well plate were infected with the DENV-2 (MY97-10340) strain at an MOI of 0.3. The cells were then treated with 3-fold, 10-point serial dilutions of test compound. After 48 h, the cells were fixed with paraformadehyde, and the viral E protein detected with 4G2 antibody labeled with Dylight™ 488 (GenScript). Cell nuclei were stained with Draq5 (Pierce/Thermo), and images were taken on the Opera imaging system (Perkin Elmer). A dose-response curve was plotted to calculate the effective concentration of compound needed to reduce expression of E protein by 50% (EC50) using GraphPad Prism.
The resulted EC50 values are summarized in Table 1 below: ±≥1 μM; 1 μM>++≥0.1 μM; 0.1 μm>+++

[4] = tested on: Dengue 1 virus MY97-10245; experiment: High-content imaging cell-based flavivirus immunodetection (HCl-CFI) assay, Dengue 1; conditions: Dengue virus, A549, 48 h, read-out: Dengue 1 virus MY97-10245 in A549 using HCl [Inhibitor/IC50] Qualified AC50

SMILES	pEC50 [1]	pEC50 [2]	pEC50 [3]	pEC50 [4]
N#Cc1c(NC(=O)Cc2ccc(S(N)(=O)=O)c(F)c2)sc2c1CN(CC1CCCCC1)CC2 [Example 9, N-(3-cyano-5-(cyclohexylmethyl)-4,5,6,7-tetrahydrothieno[3,2-c]pyridin-2-yl)-2-(3-fluoro-4-sulfamoylphenyl)acetamide]	> 7.00	> 7.00	> 7.00	6.00 to 7.00
COc1cc(CC(=O)Nc2sc3c(c2C#N)CN(CC2CCCCC2)CC3)ccc1S(C)(=O)=O [Example 10, N-(3-cyano-5-(cyclohexylmethyl)-4,5,6,7-tetrahydrothieno[3,2-c]pyridin-2-yl)-2-(3-methoxy-4-(methylsulfonyl)phenyl)acetamide]	> 7.00	> 7.00	> 7.00	6.00 to 7.00
N#Cc1c(NC(=O)Cc2ccc(S(=O)(=O)C(F)F)cc2)sc2c1CN(CC1CCCCC1)CC2 [Example 11, N-(3-cyano-5-(cyclohexylmethyl)-4,5,6,7-tetrahydrothieno[3,2-c]pyridin-2-yl)-2-(4-((difluoromethyl)sulfonyl)phenyl)acetamide]	> 7.00	> 7.00	6.00 to 7.00	> 7.00
CCOc1cc(CC(=O)Nc2sc3c(c2C#N)CN(CC2CCCCC2)CC3)ccc1S(N)(=O)=O [Example 12, N-(3-cyano-5-(cyclohexylmethyl)-4,5,6,7-tetrahydrothieno[3,2-c]pyridin-2-yl)-2-(3-ethoxy-4-sulfamoylphenyl)acetamide]	> 7.00	> 7.00	> 7.00	> 7.00
CS(=O)(=O)Nc1ccc(CC(=O)Nc2sc3c(c2C#N)CN(CC2CCCCC2)CC3)cc1 [Example 13, N-(3-cyano-5-(cyclohexylmethyl)-4,5,6,7-tetrahydrothieno[3,2-c]pyridin-2-yl)-2-(4-(methylsulfonamido)phenyl)acetamide]	6.00 to 7.00	6.00 to 7.00	6.00 to 7.00	6.00 to 7.00
CN(C)S(=O)(=O)c1ccc(CC(=O)Nc2sc3c(c2C#N)CN(CC2CCCCC2)CC3)cc1 [Example 14, N-(3-cyano-5-(cyclohexylmethyl)-4,5,6,7-tetrahydrothieno[3,2-c]pyridin-2-yl)-2-(4-(N,N-dimethylsulfamoyl)phenyl)acetamide]	6.00 to 7.00	6.00 to 7.00	6.00 to 7.00	6.00 to 7.00
COCCOc1cccc(CC(=O)Nc2sc3c(c2C#N)CN(CC2CCCCC2)CC3)c1 [Example 15, N-(3-cyano-5-(cyclohexylmethyl)-4,5,6,7-tetrahydrothieno[3,2-c]pyridin-2-yl)-2-(3-(2-methoxyethoxy)phenyl)acetamide]	6.00 to 7.00	6.00 to 7.00	6.00 to 7.00	6.00 to 7.00
N#Cc1c(NC(=O)Cc2ccc3c(c2)CNS3(=O)=O)sc2c1CN(CC1CCCCC1)CC2 [Example 16, N-(3-cyano-5-(cyclohexylmethyl)-4,5,6,7-tetrahydrothieno[3,2-c]pyridin-2-yl)-2-(1,1-dioxido-2,3-dihydrobenzo[d]isothiazol-5-yl)acetamide]	> 7.00	> 7.00	> 7.00	6.00 to 7.00
N#Cc1c(NC(=O)Cc2ccc(CS(N)(=O)=O)cc2)sc2c1CN(CC1CCCCC1)CC2 [Example 17, N-(3-cyano-5-(cyclohexylmethyl)-4,5,6,7-tetrahydrothieno[3,2-c]pyridin-2-yl)-2-(4-(sulfamoylmethyl)phenyl)acetamide]	> 7.00	> 7.00	> 7.00	6.00 to 7.00
N#Cc1c(NC(=O)Cc2ccc3c(c2)CCS3(=O)=O)sc2c1CN(CC1CCCCC1)CC2 [Example 18, N-(3-cyano-5-(cyclohexylmethyl)-4,5,6,7-tetrahydrothieno[3,2-c]pyridin-2-yl)-2-(1,1-dioxido-2,3-dihydrobenzo[b]thiophen-5-yl)acetamide]	> 7.00	> 7.00	> 7.00	> 7.00
